From patent publication US20120245184A1 (Aderans Research Institute, Inc., priority 2006, published 2012) come the findings set out here.

A word on the EC50: it is the concentration that produces a half-maximal response.

Counter-ions that a name gives are not always drawn.

Assay [1] concerns sonic hedgehog pathway. Kind of assay: Human hedgehog reporter assay Daoy-GliLuc (DGL). The format is cell-based. The note with it: Daoy human medulloblastoma cells, gli-luciferase reporter; read-out: Daoy Avg. EC50. The source says: (§1) Mouse (TM3: mouse Leydig cells; S12: mouse embryonic mesenchymal cells) and human (Daoy: human medulloblastoma cell; HepM: human embryonic palatal mesenchymal cell) cell lines are used to screen small molecules for their ability to modulate the activity of the sonic hedgehog pathway (Table 1, Table 2, and Table 3). Stable hedgehog pathway reporter cell lines are established by specific antibiotic selection following transfection of a reporter plasmid containing a luciferase gene located directly downstream from the gli promoter. Consequently, any observable changes in cellular luciferase activity may be attributed to changes in sonic hedgehog pathway activity in mouse and human cells, respectively, since gli is the major by-product of this pathway. To calculate activity, we generate an eleven point dose curve for each compound using 1:3 dilutions in 96 well assay plates. Each plate tested also contains low and high control to establish maximal pathway activation so to establish/compare a percentage activation of each tested compound (AMAX) on respective plates.
(§2) Stable hedgehog pathway reporter cell lines are established following specific antibiotic selection following transfection of a reporter plasmid
(§3) In short, typically cells are plated in MicroTiter-plates at 10,000-20,000 cells per well, in growth media (containing 10%-20% FBS). After 48-72 hrs (HGL and DGL respectively) the media in the assay plates is switched to low-serum containing media (0.5% FBS). At that time compounds are added (at 1-5 μM) to the assay plates, in the presence or absence of hedgehog protein (octyl-modified version; 1-5 ng/ml). After another 24 hrs of incubation, the media from the assay plates is discarded and replaced with luciferase assay-mix. Subsequently, plates are incubated at RT for ˜15-30 mins and then read in a luminometer. [note: addition of the Hedgehog protein, although not critical, will sensitize the assay allowing the identification of weak actives].
(In general: A reporter such as luciferase makes a cellular process visible.)

In assay [2] the test system is sonic hedgehog pathway. Kind of assay: Hedgehog reporter assay (gli-luciferase) in TM3 cells. The format is cell-based, mouse. The note with it: TM3 mouse Leydig cells, gli-luciferase reporter; read-out: TM3 Avg. EC50.
Source text: as §1, §2, §3

Assay [3] deals with sonic hedgehog pathway. The assay can be described thus: Human hedgehog reporter assay HEPM-GliLuc (HGL). The assay is classed as cell-based. Conditions: HepM human embryonic palatal mesenchymal cells, gli-luciferase reporter; read-out: HEPM Avg. EC50.
Source text: as §1, §2, §3

Take `CCOc1ccc(-c2cncnc2)cc1CN(C(=O)c1sc2ccccc2c1Cl)C1CCC(NC)CC1` (stereo not drawn) [Compound 326, 3-Chloro-benzo[b]thiophene-2-carboxylic acid (2-ethoxy-5-pyrimidin-5-yl-benzyl)-(4-methylamino-cyclohexyl)-amide dihydrochloride]: the EC50 in assay [1] was below 0.05 µM; in assay [2], 0.05 to 0.25 µM; in assay [3] it was 0.05 to 0.25 µM.
On to `CCOc1ccc(-c2ccc(C(C)=O)cc2)cc1CN(C(=O)c1sc2ccccc2c1Cl)C1CCC(NC)CC1` (stereo not drawn) [Compound 311, 3-Chloro-benzo[b]thiophene-2-carboxylic acid (4′-acetyl-4-ethoxy-biphenyl-3-ylmethyl)-(4-methylamino-cyclohexyl)-amide hydrochloride], for which the figures for the EC50 in assay [1], in assay [2] and in assay [3] were below 0.05 µM, below 0.05 µM and 0.05 to 0.25 µM, respectively.
On to `CNC1CCC(N(Cc2cc(-c3ccc(CCl)cc3)ccc2OC)C(=O)c2sc3ccccc3c2Cl)CC1` (stereo not drawn) [Compound 340, 3-Chloro-benzo[b]thiophene-2-carboxylic acid (4′-chloromethyl-4-methoxy-biphenyl-3-ylmethyl)-(4-methylamino-cyclohexyl)-amide hydrochloride], for which the EC50 in assay [1], in assay [2] and in assay [3] was below 0.05 µM each time.
Turning to `CN[C@H]1CC[C@@H](N(Cc2cc(-c3ccnc(N(C)C)c3)ccc2OC)C(=O)c2sc3c(C)ccc(C)c3c2Cl)CC1` [Compound 358, 3-Chloro-4,7-difluoro-benzo[b]thiophene-2-carboxylic acid[5-(2-dimethylamino-pyridin-4-yl)-2-methoxy-benzyl]-(4-methylamino-cyclohexyl)-amide dihydrochloride], the EC50 in assay [1], in assay [2] and in assay [3] was below 0.05 µM throughout.
For `CNC1CCC(N(Cc2cc(-c3ccc(N)nc3)ccc2OC)C(=O)c2sc3c(F)ccc(F)c3c2Cl)CC1` (stereo not drawn) [Compound 352 (R18), 3-Chloro-4,7-difluoro-benzo[b]thiophene-2-carboxylic acid[5-(6-amino-pyridin-3-yl)-2-methoxy-benzyl]-(4-methylamino-cyclohexyl)-amide dihydrochloride], the EC50 in assay [1], in assay [2] and in assay [3] was below 0.05 µM throughout.
For `CNC1CCC(N(Cc2cc(-c3cncnc3)ccc2OC)C(=O)c2sc3ccccc3c2Cl)CC1` (stereo not drawn) [Compound 324 (R20), 3-Chloro-benzo[b]thiophene-2-carboxylic acid (2-methoxy-5-pyrimidin-5-yl-benzyl)-(4-methylamino-cyclohexyl)-amide dihydrochloride], the results for the EC50 in assay [1], in assay [2] and in assay [3] were below 0.05 µM, 0.05 to 0.25 µM and 0.05 to 0.25 µM, respectively.
With `CNC1CCC(N(Cc2cc(-c3ccc(N(C)C=O)cc3)ccc2OC)C(=O)c2sc3cccc(F)c3c2Cl)CC1` (stereo not drawn) [Compound 347, 3-Chloro-4-fluoro-benzo[b]thiophene-2-carboxylic acid[4′-(formyl-methyl-amino)-4-methoxy-biphenyl-3-ylmethyl]-(4-methylamino-cyclohexyl)-amide trifluoroacetate], the EC50 in assay [1], in assay [2] and in assay [3] was below 0.05 µM each time.
As for `CNC1CCC(N(Cc2cc(-c3cc(C)cc(C)c3)ccc2OC)C(=O)C2=C(Cl)c3c(C)ccc(F)c3C2)CC1` (stereo not drawn) [Compound 350, 3-Chloro-4,7-difluoro-benzo[b]thiophene-2-carboxylic acid[5-(2,6-dimethyl-pyridin-4-yl)-2-methoxy-benzyl]-(4-methylamino-cyclohexyl)-amide dihydrochloride], the EC50 in assay [1] was below 0.05 µM; in assay [2] it was below 0.05 µM; in assay [3] it was 0.05 to 0.25 µM.
Regarding `CNC1CCC(N(Cc2cc(-c3cncnc3)ccc2OC)C(=O)c2sc3c(F)ccc(F)c3c2Cl)CC1` (stereo not drawn) [Compound 343 (R15), 3-Chloro-4,7-difluoro-benzo[b]thiophene-2-carboxylic acid(2-methoxy-5-pyrimidin-5-yl-benzyl)-(4-methylamino-cyclohexyl)-amide dihydrochloride], the EC50 in assay [1], in assay [2] and in assay [3] was below 0.05 µM throughout.
